# Columns and labels:
# [1] = target: Methyl-CpG-binding domain protein 4 (Homo sapiens) (UniProt O95243); conditions: Compound Concentration 10.0 uM;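 further: MBD4 activity read as fluorescence at 594 nm from cleavage and release of a quenched duplex DNA oligonucleotide, with APE1 coupled to incise the strand and raise turnover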
# Description: Inhibition of MBD4 by quantifying inhibition of MBD4-mediated cleavage and dissociation of quenched duplex DNA oligonucleotides, measured as fluorescence at 594 nm. To generate a functional strand incision and increase turn-over this assay is coupled to APE1.
# [2] = target: DNA-3-methyladenine glycosylase (Homo sapiens) (UniProt P29372); conditions: Compound Concentration 10.0 uM;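 further: enzyme assay where MPG cuts a quenched duplex DNA oligonucleotide probe, paired with APE1 for strand incision and turnover, read as fluorescence at 594 nm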
# Description: Inhibition of MPG by quantifying inhibition of MPG-mediated cleavage and dissociation of quenched duplex DNA oligonucleotides, measured as fluorescence at 594 nm. To generate a functional strand incision and increase turn-over this assay is coupled to APE1.
# [3] = target: T1, Adenine DNA glycosylase (Homo sapiens) (UniProt Q9UIF7); conditions: Compound Concentration 10.0 uM;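 further: human MUTYH activity read as 594 nm fluorescence from cleavage and release of a quenched DNA duplex, coupled with APE1 for strand incision, lower signal meaning inhibition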
# T1 sequence (whole entry): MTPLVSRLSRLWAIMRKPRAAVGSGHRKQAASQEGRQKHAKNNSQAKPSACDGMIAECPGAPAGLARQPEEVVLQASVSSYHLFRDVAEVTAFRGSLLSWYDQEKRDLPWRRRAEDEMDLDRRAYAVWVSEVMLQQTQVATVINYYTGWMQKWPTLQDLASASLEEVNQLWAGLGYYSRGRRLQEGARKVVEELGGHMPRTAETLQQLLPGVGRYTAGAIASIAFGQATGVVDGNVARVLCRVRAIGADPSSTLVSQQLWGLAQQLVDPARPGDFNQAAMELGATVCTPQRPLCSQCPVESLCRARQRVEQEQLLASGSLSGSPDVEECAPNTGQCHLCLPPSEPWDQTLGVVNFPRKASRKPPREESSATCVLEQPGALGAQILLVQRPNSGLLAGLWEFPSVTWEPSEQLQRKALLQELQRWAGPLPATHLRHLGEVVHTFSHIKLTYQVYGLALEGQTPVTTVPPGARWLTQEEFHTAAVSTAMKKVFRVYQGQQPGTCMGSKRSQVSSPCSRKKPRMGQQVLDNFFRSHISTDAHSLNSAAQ
# Description: Inhibition of MUTYH by quantifying inhibition of MUTYH-mediated cleavage and dissociation of quenched duplex DNA oligonucleotides, measured as fluorescence at 594 nm. To generate a functional strand incision and increase turn-over this assay is coupled to APE1.
# [4] = target: Endonuclease 8-like 1 (Homo sapiens) (UniProt Q96FI4); conditions: Compound Concentration 10.0 uM, Hit No;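 further: fluorescence at 594 nm from quenched duplex DNA oligonucleotides released by NEIL1 cleavage and strand separation, reported as reduction of this enzyme activity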
# Description: Inhibition of NEIL1 by quantifying inhibition of NEIL1-mediated cleavage and dissociation of quenched duplex DNA oligonucleotides, measured as fluorescence at 594 nm.
# [5] = target: T2, Endonuclease 8-like 2 (Homo sapiens) (UniProt Q969S2); conditions: Compound Concentration 10.0 uM, Hit No;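 further: fluorescence at 594 nm reports NEIL2 cutting and release of a quenched double-stranded DNA oligo substrate, reduced signal read as inhibition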
# T2 sequence (whole entry): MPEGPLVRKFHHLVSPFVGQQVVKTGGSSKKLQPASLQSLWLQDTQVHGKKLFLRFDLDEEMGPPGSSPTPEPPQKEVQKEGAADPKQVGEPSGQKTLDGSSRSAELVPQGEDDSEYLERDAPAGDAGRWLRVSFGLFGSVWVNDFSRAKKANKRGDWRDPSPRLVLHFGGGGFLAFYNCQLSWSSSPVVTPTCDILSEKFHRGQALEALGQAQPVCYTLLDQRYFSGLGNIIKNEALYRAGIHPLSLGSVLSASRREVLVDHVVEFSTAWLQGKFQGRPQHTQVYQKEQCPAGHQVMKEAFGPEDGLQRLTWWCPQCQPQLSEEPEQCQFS
# Description: Inhibition of NEIL2 by quantifying inhibition of NEIL2-mediated cleavage and dissociation of quenched duplex DNA oligonucleotides, measured as fluorescence at 594 nm.
# [6] = target: T3, Endonuclease III-like protein 1 (Homo sapiens) (UniProt P78549); conditions: Compound Concentration 10.0 uM, Hit No;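 further: enzyme assay tracking NTHL1 cutting and release of a quenched double-stranded DNA oligo substrate, read as fluorescence at 594 nm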
# T3 sequence (whole entry): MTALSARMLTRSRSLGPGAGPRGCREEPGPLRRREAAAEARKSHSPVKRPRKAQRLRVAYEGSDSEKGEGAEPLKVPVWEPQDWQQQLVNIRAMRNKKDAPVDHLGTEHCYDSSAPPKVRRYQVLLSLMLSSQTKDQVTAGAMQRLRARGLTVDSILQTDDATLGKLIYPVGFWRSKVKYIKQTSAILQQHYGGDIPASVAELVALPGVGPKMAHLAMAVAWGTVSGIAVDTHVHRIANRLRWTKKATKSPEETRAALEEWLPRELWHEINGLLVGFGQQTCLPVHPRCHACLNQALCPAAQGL
# Description: Inhibition of NTHL1 by quantifying inhibition of NTHL1-mediated cleavage and dissociation of quenched duplex DNA oligonucleotides, measured as fluorescence at 594 nm.
# [7] = target: T4, Single-strand selective monofunctional uracil DNA glycosylase (Homo sapiens) (UniProt Q53HV7); conditions: Compound Concentration 10.0 uM, Hit No;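 further: enzymatic SMUG1 assay coupled with APE1, reading fluorescence at 594 nm released when a quenched double-stranded DNA oligonucleotide substrate is cleaved and separated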
# T4 sequence (whole entry): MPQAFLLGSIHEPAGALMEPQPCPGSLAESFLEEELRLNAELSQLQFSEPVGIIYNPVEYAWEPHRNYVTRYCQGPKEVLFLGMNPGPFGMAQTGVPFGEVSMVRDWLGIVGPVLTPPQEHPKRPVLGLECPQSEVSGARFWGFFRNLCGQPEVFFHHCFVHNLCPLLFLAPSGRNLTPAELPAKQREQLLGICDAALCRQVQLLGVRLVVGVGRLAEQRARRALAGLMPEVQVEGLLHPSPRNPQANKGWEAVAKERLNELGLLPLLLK
# Description: Inhibition of SMUG1 by quantifying inhibition of SMUG1-mediated cleavage and dissociation of quenched duplex DNA oligonucleotides, measured as fluorescence at 594 nm. To generate a functional strand incision and increase turn-over this assay is coupled to APE1.
# [8] = target: G/T mismatch-specific thymine DNA glycosylase (Homo sapiens) (UniProt Q13569); conditions: Compound Concentration 10.0 uM;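 further: human TDG cleavage of quenched duplex DNA oligonucleotides coupled to APE1, strand release read as fluorescence at 594 nm, inhibition of TDG activity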
# Description: Inhibition of TDG by quantifying inhibition of TDG-mediated cleavage and dissociation of quenched duplex DNA oligonucleotides, measured as fluorescence at 594 nm. To generate a functional strand incision and increase turn-over this assay is coupled to APE1.
# [9] = target: Uracil-DNA glycosylase (Homo sapiens) (UniProt P13051); conditions: Compound Concentration 10.0 uM, Hit No;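 further: UNG excision on a quenched double-stranded DNA oligo probe, with APE1 added for strand incision and turnover, read as fluorescence at 594 nm as strands separate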
# Description: Inhibition of UNG by quantifying inhibition of UNG-mediated cleavage and dissociation of quenched duplex DNA oligonucleotides, measured as fluorescence at 594 nm. To generate a functional strand incision and increase turn-over this assay is coupled to APE1.
# [10] = target: N-glycosylase/DNA lyase (Homo sapiens) (UniProt O15527); conditions: Compound Concentration 10.0 uM;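 further: OGG1 cleavage of a quenched duplex DNA oligonucleotide, coupled to APE1 for strand incision, read as fluorescence at 594 nm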
# Sequence of N-glycosylase/DNA lyase (Homo sapiens) (O15527 whole entry): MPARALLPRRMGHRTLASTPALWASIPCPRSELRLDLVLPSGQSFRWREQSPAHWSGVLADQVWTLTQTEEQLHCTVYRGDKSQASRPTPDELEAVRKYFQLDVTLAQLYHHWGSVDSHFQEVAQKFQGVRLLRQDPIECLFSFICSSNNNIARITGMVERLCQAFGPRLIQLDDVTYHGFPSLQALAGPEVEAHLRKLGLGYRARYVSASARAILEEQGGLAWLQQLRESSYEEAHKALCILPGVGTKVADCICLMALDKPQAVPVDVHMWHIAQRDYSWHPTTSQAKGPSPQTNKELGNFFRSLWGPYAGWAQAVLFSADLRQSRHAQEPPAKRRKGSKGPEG
# Description: Inhibition of OGG1 by quantifying inhibition of OGG1-mediated cleavage and dissociation of quenched duplex DNA oligonucleotides, measured as fluorescence at 594 nm. To generate a functional strand incision and increase turn-over this assay is coupled to APE1.
# Sequence of DNA-3-methyladenine glycosylase (Homo sapiens) (P29372 whole entry): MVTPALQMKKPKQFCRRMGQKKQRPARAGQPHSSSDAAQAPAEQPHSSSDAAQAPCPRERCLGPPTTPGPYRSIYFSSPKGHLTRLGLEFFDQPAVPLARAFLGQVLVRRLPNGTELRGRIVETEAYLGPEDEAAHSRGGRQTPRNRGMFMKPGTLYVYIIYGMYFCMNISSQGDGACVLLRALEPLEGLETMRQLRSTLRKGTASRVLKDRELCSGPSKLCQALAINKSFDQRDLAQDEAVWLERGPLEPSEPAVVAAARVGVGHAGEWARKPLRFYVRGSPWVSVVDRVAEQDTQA
# Sequence of Methyl-CpG-binding domain protein 4 (Homo sapiens) (O95243 whole entry, the tested form may be a part): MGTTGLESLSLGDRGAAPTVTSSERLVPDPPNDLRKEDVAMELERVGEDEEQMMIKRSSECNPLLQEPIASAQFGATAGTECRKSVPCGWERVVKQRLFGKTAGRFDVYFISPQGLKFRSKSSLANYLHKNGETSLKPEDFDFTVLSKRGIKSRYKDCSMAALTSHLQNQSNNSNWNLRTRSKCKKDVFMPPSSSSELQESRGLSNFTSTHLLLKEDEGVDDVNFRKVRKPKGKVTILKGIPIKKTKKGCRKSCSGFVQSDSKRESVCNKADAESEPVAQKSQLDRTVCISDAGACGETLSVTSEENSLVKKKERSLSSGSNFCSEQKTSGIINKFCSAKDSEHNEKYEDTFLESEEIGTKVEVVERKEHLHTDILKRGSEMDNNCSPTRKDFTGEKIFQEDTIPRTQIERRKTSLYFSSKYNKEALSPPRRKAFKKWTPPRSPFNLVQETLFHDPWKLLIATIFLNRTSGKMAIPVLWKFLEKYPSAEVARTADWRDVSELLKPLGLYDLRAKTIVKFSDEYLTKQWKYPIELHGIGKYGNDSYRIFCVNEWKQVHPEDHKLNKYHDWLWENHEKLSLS
# Sequence of Uracil-DNA glycosylase (Homo sapiens) (P13051 whole entry): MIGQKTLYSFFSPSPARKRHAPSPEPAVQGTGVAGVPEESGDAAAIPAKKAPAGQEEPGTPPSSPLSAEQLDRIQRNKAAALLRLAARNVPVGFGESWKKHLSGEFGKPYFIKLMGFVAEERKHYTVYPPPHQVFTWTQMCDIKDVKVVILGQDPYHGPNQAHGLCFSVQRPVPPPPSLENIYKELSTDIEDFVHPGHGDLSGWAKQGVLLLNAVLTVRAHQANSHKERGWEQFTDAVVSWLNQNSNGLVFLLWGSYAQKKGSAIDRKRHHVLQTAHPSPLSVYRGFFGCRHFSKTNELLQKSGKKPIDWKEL
# Sequence of G/T mismatch-specific thymine DNA glycosylase (Homo sapiens) (Q13569 whole entry): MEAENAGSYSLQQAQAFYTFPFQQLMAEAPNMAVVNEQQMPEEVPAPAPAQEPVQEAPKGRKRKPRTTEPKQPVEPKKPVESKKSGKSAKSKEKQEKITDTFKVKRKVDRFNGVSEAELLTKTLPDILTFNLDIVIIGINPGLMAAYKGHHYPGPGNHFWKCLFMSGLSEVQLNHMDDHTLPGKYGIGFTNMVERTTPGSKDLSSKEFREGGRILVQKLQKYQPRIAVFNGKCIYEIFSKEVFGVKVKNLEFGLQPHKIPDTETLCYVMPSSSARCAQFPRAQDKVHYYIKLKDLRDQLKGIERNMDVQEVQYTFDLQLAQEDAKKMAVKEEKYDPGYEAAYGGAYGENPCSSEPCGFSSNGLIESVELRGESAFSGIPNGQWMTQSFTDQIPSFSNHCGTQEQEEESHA
# Sequence of Endonuclease 8-like 1 (Homo sapiens) (Q96FI4 whole entry): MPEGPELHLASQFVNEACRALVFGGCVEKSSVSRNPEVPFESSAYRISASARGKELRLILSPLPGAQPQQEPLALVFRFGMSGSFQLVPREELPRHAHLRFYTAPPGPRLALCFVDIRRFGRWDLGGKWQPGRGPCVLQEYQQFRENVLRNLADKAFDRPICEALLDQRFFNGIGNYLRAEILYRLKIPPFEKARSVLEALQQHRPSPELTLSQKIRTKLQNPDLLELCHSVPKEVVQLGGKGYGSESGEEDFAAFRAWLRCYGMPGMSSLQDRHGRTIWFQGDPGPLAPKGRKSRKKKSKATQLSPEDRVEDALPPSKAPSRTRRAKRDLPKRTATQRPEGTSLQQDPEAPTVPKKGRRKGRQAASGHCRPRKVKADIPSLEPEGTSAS
Compound,inhibition ([1]; Hit No) [%],inhibition ([2]; Hit No) [%],inhibition ([3]; Hit No) [%],inhibition [4] [%],inhibition [5] [%],inhibition [6] [%],inhibition [7] [%],inhibition ([8]; Hit No) [%],inhibition [9] [%],inhibition ([1]; Hit Yes) [%],inhibition ([10]; Hit No) [%],inhibition ([2]; Hit Yes) [%],inhibition ([3]; Hit Yes) [%],inhibition ([8]; Hit Yes) [%],inhibition ([10]; Hit Yes) [%]
CNc1nc(-c2ccc3c(N)n[nH]c3c2)cc(N2C[C@@H](C(=O)NC3CCCCC3)CC[C@H]2C)n1,21.4,23.1,25.6,3.84,-5.15,-2,20.7,57.1,5.37,–,–,–,–,–,–
N#Cc1cccc(-c2nc(-c3cccnc3)no2)c1,-5.03,-9.43,-6.2,2.53,-2.39,-1.08,-8.21,-5.18,-2.96,–,–,–,–,–,–
COC1(C[S@@+]([O-])c2ccccc2)CCN(CCc2c[nH]c3ccc(F)cc23)CC1,2.25,-3.99,-7.4,5.2,–,17.1,-8.49,6.29,-4,–,–,–,–,–,–
O=C(Nc1cc(-c2ccccc2)nn1-c1ccccc1F)c1ccc([N+](=O)[O-])cc1,-1.82,9.2,7.68,-2.66,2.96,24.5,-6.29,-4.55,-0.319,–,–,–,–,–,–
Brc1c(NC2=NCCN2)ccc2nccnc12,–,-8.07,-8.17,-5.69,6.5,-4.67,-5.99,1.79,–,140,–,–,–,–,–
COCc1nc2cnc3cc(-c4c(C)noc4C)c(OC[C@H]4CCNC4)cc3c2n1[C@H](C)c1ccccc1,57.4,-8.22,2.41,-6.95,-1.25,-9.18,-7.21,54.7,-1.93,–,–,–,–,–,–
COC(=O)N1CCN(C(=O)Cc2ccc(Cl)c(Cl)c2)C(CN2CCCC2)C1 (configuration not stated),11.3,-2.31,4.69,4.16,0.414,19.6,-9.51,-7.07,-7.49,–,–,–,–,–,–
CC(C)(O)c1ccc2c(c1)ncn2-c1cccc(-c2ccccc2C#N)c1,26.4,3.49,-2.7,-1.62,–,12.1,1,-5.39,-7.68,–,–,–,–,–,–
CC(C)C[C@H](NC(=O)[C@H](CC(N)=O)NC(=O)[C@@H]1CCCN1C(=O)[C@@H](N)C(C)C)C(=O)N1CCC[C@H]1C(=O)N[C@@H](CCC(N)=O)C(=O)N[C@@H](CCCNC(=N)N)C(=O)N[C@@H](Cc1ccccc1)C(N)=O,7.14,2.54,-3.17,5.49,4.75,17.1,–,4.58,-4.09,–,-4.66,–,–,–,–
CCCN(CCc1cccs1)[C@H]1CCc2c(O)cccc2C1,27.8,14.7,14.9,-8.88,-1.88,18.7,–,8.18,-4.64,–,-7.03,–,–,–,–
O=C(O)CCCCCC[C@H]1C(=O)NC(=O)N1CCC(O)C1CCCCC1 (some centres not stated),9.44,-5.01,39.4,-4.58,-1.37,23.7,–,11,-5.39,–,-6.34,–,–,–,–
COc1ccc(CC(=O)NC(N/C(=N/C#N)Nc2cccc3ncccc23)C(C)(C)C)cc1OC (configuration not stated),-7.77,7.8,7.91,3.12,1.94,16.2,–,7.3,-5.2,–,-8,–,–,–,–
CC(C)(C)c1ccc(NC(=O)N2CCN(c3ncccc3Cl)CC2)cc1,8.84,9.36,-0.729,-1.77,–,21.2,-0.579,11,-5.92,–,–,–,–,–,–
NCCCCN(Cc1nc2ccccc2[nH]1)[C@H]1CCCc2cccnc21,-9.01,-6.17,5.47,10.7,6.78,-0.258,–,0.598,-4.22,–,-6.41,–,–,–,–
c1ccc(Cn2c(N3CCNCC3)nc3ccccc32)cc1,-1.45,2.45,0.413,3.42,-2.13,25.3,–,-3.94,-7.26,–,-7.05,–,–,–,–
CCCCCCNC(=O)Nc1ccc(S(=O)(=O)Nc2ccc(CCNC[C@H](O)COc3ccc(O)cc3)cc2)cc1,–,–,–,-4.58,-3.66,10.5,–,–,5.25,102,3.62,105,107,105,–
C[C@@H](C(N)=O)[C@H](N)c1nc2ccc(C(C)(C)C)cc2[nH]1,10.2,2.09,0.595,0.158,–,12.9,-0.466,6.56,-4.85,–,–,–,–,–,–
O=c1cc(-c2cc(F)c(Cl)nc2Cl)[nH]c2c(-c3ccccc3)c(C(F)(F)F)nn12,66.3,43.4,63.1,-6.07,16,8,–,54.8,1.49,–,–,–,–,–,60.4
CCNC(=O)[C@H]1O[C@@H](n2cnc3c(N)ncnc32)[C@H](O)[C@@H]1O,-0.442,-3.56,-3.4,3.86,–,17.9,-5.33,-4.15,-2.94,–,–,–,–,–,–
CCCN(CCC)[C@@H]1CCc2ccc3[nH]c(C#N)cc3c2C1,35.8,27.5,46.8,-4.73,9.08,-5.21,–,30,-7.96,–,5.74,–,–,–,–
CCCCC(=O)N(Cc1ccc(-c2ccccc2C(=O)O)cc1)c1ccccc1,33.4,11.5,18,1.79,-3.15,7.17,–,23.9,-5.18,–,-7.96,–,–,–,–
CCNC(=O)[C@H]1O[C@@H](n2cnc3c(N)nc(NCCc4ccc(CCC(=O)O)cc4)nc32)[C@H](O)[C@@H]1O,17.2,-2.22,11.8,3.42,-6.46,1.39,–,0.161,-6.16,–,-9.97,–,–,–,–
